Data taken from patent US4341781A, “Pyridazopyridazine derivatives” (Hoffmann-La Roche Inc., priority 1979, dated 1982).

Target: T1, angiotensin converting enzyme (Oryctolagus cuniculus, UniProt P12822)
T1 sequence (P12822 34-1310): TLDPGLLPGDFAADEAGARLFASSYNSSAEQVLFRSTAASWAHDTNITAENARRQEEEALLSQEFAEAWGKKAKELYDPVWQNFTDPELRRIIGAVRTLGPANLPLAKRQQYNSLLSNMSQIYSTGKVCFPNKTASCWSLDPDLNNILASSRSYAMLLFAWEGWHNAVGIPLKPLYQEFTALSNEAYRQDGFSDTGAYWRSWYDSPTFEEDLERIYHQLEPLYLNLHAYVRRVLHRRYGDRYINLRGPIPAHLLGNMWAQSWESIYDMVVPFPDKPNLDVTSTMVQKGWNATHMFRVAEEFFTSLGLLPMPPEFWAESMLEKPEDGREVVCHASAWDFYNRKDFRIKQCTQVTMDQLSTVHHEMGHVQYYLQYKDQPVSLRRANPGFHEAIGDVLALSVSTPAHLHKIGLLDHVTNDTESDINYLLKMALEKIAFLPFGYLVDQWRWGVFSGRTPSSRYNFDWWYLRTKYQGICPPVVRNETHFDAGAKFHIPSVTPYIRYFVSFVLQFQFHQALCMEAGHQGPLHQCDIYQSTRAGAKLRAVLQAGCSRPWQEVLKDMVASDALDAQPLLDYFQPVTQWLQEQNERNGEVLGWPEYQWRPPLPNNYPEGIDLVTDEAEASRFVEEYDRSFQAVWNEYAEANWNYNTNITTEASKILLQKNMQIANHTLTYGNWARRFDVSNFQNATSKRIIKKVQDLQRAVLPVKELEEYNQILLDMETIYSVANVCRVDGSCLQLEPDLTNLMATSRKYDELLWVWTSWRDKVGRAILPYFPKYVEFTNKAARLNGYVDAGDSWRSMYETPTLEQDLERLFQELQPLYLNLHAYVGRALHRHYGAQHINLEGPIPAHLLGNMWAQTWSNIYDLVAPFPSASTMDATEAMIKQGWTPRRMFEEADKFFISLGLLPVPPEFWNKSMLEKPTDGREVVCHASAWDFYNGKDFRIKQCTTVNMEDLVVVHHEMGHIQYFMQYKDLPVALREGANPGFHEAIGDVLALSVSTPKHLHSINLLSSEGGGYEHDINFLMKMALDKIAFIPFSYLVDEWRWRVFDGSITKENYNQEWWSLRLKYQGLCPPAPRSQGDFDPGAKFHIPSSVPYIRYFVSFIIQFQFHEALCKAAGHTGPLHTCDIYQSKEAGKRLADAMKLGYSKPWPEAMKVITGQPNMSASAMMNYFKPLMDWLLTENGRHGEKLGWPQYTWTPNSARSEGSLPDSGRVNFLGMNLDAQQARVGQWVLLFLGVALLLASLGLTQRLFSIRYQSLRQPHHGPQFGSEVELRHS
Test: Inhibition of angiotensin converting enzyme in vitro (hippuryl-histidyl-leucine cleavage, Cushman and Cheung method modified by Hayakari et al.)
Assay type: biochemical
Conditions: substrate hippuryl-histidyl-leucine 2 mM; potassium phosphate buffer pH 8.3, 300 mM NaCl; 25 minutes at 37° C.
Protocol: The activity of the present pyridazopyridazine derivatives in inhibiting angiotensin converting enzyme in vitro can be determined by the following test.
The method used is based on the method of Cushman and Cheung (Biochem. Pharmacol., 20, 1637-1648) incorporating the modifications introduced by Hayakari, et al. (Anal. Biochem., 84, 361-369). The substrate (hippuryl-histidyl-leucine, 2 mM) is incubated with angiotensin converting enzyme in the presence or absence of various concentrations of test substance in potassium phosphate buffer (pH 8.3; 100 mM) containing sodium chloride (300 mM) for 25 minutes at 37° C. (total […] 500 μl). The reaction is terminated by the addition of 3 ml of potassium phosphate buffer (pH 8.3; 200 mM) at 0° C. 2,4,6-Trichloro-s-triazine (3%) in 1.5 ml of dioxane is added and the mixture is agitated until the yellow chromophore has developed fully. The samples are then centrifuged to remove any precipitate which has formed. The yellow chromophore formed by the reaction of the 2,4,6-trichloro-s-triazine with free hippuric acid is measured spectrophotometrically at 382 nm. IC50 values are defined as the concentration of test substance which reduces by 50% the cleavage of hippuryl-histidylleucine by angiotensin converting enzyme under the aforementioned conditions.

IC50: 0.0625 µM
SMILES: O=C(O)C1CCCN2C(=O)CC(CS)C(=O)N12 (racemic) [racemic 8-(mercaptomethyl)-octahydro-6,9-dioxopyridazo[1,2-a]pyridazine-1-carboxylic acid]
